Here are results for three compounds from ChEMBL document CHEMBL1152560, “Substituted 2-arylbenzothiazoles as kinase inhibitors: hit-to-lead optimization” (Bioorg Med Chem, 2009).

For assay [1], the target named is Serine/threonine-protein kinase PLK3 (Homo sapiens) (UniProt Q9H4B4). The assay can be described thus: Residual activity of PLK3 at 1 uM by microplate scintillation counting.
Assay [2] has as its target Calcium/calmodulin-dependent protein kinase type II subunit beta (Homo sapiens) (UniProt Q13554). Nature of the assay: Residual activity of CAMK2B at 10 uM by microplate scintillation counting.
For assay [3], the target named is T1, Inhibitor of nuclear factor kappa-B kinase subunit epsilon (Homo sapiens) (UniProt Q14164).
T1 sequence (whole entry): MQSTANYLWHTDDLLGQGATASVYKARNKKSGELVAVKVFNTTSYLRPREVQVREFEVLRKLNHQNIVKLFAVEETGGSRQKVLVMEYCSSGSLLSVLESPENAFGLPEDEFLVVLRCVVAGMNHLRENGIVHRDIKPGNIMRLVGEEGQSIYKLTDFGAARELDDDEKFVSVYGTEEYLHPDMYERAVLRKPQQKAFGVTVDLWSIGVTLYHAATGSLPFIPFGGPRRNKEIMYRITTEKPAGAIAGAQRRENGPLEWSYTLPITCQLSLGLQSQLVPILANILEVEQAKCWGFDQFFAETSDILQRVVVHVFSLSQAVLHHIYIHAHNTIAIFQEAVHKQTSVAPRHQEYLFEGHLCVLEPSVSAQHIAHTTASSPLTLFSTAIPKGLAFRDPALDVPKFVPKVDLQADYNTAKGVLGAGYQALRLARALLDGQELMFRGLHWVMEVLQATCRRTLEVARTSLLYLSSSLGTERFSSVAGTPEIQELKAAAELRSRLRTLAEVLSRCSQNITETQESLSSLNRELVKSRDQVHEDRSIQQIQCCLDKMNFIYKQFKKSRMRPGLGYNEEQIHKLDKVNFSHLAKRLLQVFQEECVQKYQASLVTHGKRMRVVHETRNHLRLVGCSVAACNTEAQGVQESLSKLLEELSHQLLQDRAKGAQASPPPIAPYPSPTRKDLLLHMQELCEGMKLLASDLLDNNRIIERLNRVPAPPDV
Nature of the assay: Residual activity of IKKepsilon at 0.1 uM by microplate scintillation counting.

Assay [4] addresses Serine/threonine-protein kinase PLK3 (Homo sapiens) (UniProt Q9H4B4). The assay can be described thus: Residual activity of PLK3 at 0.1 uM by microplate scintillation counting.
Assay [5] concerns the target Insulin receptor (Homo sapiens) (UniProt P06213). Nature of the assay: Residual activity of INSR at 10 uM by microplate scintillation counting.
Assay [6] concerns the target Serine/threonine-protein kinase 26 (Homo sapiens) (UniProt Q9P289). Nature of the assay: Residual activity of MST4 at 0.1 uM by microplate scintillation counting.
In assay [7] the target is BDNF/NT-3 growth factors receptor (Homo sapiens) (UniProt Q16620). Nature of the assay: Residual activity of TRK-B at 0.1 uM by microplate scintillation counting.
Chain of BDNF/NT-3 growth factors receptor (Homo sapiens) (Q16620 32-822 limits assumed): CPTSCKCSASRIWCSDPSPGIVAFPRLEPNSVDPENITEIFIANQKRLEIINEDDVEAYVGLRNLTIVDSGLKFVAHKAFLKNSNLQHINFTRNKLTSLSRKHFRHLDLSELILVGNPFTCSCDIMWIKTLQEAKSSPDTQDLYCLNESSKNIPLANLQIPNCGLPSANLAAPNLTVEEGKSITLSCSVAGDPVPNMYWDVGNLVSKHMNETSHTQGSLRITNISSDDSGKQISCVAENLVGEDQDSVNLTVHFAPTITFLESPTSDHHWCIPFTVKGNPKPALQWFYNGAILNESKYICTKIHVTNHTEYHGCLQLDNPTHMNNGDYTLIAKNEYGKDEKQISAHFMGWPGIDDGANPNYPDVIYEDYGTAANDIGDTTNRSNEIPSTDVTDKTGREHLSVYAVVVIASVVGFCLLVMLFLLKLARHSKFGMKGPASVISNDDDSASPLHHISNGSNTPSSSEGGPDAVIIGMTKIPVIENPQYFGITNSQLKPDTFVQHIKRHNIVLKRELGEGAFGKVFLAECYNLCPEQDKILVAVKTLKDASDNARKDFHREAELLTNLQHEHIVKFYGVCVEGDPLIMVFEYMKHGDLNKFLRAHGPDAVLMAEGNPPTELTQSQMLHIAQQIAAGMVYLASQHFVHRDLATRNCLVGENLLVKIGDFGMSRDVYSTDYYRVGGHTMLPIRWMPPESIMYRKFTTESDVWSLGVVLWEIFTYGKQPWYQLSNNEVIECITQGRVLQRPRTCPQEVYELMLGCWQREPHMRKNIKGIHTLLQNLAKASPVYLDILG
In assay [8] the target is T2, Eukaryotic translation initiation factor 2-alpha kinase 3 (Homo sapiens) (UniProt Q9NZJ5).
T2 sequence (whole entry): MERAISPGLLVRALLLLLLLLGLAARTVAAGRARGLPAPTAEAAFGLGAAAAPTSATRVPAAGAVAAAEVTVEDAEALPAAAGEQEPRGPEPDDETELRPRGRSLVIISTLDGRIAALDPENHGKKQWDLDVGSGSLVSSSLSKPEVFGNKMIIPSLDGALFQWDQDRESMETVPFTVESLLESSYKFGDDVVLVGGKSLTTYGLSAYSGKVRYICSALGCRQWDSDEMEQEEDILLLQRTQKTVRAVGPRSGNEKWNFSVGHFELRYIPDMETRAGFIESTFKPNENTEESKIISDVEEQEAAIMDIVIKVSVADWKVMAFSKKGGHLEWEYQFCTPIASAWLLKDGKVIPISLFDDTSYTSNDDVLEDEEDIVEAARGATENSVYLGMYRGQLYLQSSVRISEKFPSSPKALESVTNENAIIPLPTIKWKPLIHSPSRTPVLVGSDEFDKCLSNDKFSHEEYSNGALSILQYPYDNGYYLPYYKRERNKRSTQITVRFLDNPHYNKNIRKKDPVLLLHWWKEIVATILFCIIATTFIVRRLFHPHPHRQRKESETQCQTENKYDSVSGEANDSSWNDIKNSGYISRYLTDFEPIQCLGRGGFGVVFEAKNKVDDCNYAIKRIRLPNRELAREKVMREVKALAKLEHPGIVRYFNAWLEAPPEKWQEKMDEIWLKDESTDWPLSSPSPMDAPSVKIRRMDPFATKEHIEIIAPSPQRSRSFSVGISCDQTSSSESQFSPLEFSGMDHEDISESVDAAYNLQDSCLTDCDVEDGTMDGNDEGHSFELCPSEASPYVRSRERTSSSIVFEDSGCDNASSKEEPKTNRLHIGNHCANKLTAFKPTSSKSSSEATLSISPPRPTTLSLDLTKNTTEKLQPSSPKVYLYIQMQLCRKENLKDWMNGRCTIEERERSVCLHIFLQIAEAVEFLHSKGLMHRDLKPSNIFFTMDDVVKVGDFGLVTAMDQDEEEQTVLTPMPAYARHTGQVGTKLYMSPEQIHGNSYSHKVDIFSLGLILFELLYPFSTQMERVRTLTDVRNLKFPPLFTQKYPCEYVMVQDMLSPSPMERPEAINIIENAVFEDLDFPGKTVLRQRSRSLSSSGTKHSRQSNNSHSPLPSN
The assay can be described thus: Residual activity of EIF2AK3 at 0.1 uM by microplate scintillation counting.

The target in assay [9] is T3, Serine/threonine-protein kinase Nek2 (Homo sapiens) (UniProt P51955).
T3 sequence (whole entry): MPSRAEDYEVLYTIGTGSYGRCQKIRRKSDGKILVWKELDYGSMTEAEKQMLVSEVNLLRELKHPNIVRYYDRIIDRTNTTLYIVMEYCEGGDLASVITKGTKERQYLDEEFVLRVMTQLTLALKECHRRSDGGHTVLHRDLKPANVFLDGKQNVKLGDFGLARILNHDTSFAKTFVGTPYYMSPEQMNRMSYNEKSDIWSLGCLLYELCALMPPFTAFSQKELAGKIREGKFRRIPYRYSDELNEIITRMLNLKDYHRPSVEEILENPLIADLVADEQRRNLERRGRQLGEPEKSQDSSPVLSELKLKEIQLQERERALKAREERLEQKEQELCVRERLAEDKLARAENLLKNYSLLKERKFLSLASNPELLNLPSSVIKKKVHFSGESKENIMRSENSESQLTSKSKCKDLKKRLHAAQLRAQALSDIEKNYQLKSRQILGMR
The assay can be described thus: Residual activity of NEK2 at 1 uM by microplate scintillation counting.

In assay [10] the target is Serine/threonine-protein kinase 33 (Homo sapiens) (UniProt Q9BYT3). The assay can be described thus: Residual activity of STK33 at 1 uM by microplate scintillation counting.
Chain of Serine/threonine-protein kinase 33 (Homo sapiens) (Q9BYT3 whole entry, looked up): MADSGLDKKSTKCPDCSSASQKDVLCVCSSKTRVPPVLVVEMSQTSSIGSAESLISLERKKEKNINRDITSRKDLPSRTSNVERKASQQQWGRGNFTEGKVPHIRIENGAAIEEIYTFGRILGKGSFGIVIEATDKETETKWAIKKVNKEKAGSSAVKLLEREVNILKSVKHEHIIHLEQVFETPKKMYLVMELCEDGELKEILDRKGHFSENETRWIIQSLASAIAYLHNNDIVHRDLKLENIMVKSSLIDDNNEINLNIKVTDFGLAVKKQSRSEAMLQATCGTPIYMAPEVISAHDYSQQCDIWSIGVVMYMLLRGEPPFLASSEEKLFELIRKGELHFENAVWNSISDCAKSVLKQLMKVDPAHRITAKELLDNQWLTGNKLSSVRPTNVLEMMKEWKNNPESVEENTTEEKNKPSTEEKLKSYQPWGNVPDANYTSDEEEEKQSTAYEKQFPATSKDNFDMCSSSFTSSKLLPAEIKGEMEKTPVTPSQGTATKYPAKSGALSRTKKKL
For assay [11], the target named is Vascular endothelial growth factor receptor 3 (Homo sapiens, UniProt P35916). The assay can be described thus: Residual activity of VEGFR3 at 1 uM by microplate scintillation counting.
Chain of Vascular endothelial growth factor receptor 3 (P35916 whole entry): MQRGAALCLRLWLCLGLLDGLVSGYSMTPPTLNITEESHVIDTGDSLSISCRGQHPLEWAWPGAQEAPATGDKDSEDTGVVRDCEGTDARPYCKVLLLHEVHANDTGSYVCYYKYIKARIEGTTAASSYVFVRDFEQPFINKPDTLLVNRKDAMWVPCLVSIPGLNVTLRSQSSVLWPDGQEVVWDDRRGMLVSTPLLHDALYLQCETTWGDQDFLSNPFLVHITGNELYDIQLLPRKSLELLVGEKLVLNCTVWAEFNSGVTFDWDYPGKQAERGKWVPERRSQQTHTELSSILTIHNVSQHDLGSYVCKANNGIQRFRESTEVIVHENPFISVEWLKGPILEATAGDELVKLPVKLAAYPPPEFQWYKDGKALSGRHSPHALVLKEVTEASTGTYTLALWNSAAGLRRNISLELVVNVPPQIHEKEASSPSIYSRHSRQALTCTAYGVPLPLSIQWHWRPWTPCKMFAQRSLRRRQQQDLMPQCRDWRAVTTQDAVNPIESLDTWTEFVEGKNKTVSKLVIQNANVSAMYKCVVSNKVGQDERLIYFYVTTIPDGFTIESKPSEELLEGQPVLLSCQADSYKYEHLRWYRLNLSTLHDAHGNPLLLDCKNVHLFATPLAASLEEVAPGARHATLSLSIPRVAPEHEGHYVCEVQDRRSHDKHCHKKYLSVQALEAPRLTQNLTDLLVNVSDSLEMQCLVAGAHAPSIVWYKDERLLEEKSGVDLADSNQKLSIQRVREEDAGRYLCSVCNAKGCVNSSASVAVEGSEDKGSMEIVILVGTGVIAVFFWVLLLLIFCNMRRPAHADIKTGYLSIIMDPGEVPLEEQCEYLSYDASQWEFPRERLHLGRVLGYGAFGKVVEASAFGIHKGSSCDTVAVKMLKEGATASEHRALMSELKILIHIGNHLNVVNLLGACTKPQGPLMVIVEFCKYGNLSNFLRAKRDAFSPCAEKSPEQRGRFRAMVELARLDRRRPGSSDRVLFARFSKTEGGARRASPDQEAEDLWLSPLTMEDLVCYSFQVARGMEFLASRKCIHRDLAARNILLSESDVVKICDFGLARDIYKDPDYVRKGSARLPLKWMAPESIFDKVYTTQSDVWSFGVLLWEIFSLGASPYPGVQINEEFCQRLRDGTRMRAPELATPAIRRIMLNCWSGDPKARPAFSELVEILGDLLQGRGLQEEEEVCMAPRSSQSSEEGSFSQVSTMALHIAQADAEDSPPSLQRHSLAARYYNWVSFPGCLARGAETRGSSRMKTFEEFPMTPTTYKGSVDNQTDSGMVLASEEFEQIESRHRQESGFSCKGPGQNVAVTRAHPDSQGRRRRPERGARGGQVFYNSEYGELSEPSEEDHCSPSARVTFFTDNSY

Chain of Serine/threonine-protein kinase 26 (Homo sapiens) (Q9P289 2-416 limits assumed): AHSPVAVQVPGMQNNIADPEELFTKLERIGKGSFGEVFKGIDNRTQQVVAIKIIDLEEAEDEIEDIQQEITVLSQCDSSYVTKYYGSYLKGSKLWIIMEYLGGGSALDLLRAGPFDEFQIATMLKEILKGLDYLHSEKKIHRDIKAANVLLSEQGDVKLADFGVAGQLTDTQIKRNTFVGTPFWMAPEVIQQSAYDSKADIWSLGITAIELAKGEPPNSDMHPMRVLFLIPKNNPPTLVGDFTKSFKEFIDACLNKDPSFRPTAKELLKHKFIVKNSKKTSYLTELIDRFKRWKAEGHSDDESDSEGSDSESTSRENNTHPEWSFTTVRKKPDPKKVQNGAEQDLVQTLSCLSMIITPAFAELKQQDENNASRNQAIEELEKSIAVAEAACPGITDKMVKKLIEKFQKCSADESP
Chain of Serine/threonine-protein kinase PLK3 (Homo sapiens) (Q9H4B4 whole entry, looked up): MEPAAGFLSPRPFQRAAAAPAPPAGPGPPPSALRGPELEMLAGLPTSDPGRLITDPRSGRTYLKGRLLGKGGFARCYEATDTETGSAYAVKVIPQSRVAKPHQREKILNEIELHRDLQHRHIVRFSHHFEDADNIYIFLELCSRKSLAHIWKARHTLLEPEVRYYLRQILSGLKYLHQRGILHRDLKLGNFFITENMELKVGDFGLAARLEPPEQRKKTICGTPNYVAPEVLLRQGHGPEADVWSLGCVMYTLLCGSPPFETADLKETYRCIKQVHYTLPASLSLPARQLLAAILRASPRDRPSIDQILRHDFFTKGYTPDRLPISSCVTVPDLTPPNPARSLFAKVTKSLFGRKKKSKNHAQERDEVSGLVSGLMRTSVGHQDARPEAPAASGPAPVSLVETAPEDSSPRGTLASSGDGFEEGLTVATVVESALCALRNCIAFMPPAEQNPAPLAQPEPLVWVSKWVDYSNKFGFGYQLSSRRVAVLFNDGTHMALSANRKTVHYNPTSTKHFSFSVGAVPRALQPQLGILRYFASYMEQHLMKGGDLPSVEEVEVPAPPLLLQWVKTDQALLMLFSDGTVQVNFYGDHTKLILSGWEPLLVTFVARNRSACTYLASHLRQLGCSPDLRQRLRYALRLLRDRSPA
Chain of Calcium/calmodulin-dependent protein kinase type II subunit beta (Homo sapiens) (Q13554 whole entry): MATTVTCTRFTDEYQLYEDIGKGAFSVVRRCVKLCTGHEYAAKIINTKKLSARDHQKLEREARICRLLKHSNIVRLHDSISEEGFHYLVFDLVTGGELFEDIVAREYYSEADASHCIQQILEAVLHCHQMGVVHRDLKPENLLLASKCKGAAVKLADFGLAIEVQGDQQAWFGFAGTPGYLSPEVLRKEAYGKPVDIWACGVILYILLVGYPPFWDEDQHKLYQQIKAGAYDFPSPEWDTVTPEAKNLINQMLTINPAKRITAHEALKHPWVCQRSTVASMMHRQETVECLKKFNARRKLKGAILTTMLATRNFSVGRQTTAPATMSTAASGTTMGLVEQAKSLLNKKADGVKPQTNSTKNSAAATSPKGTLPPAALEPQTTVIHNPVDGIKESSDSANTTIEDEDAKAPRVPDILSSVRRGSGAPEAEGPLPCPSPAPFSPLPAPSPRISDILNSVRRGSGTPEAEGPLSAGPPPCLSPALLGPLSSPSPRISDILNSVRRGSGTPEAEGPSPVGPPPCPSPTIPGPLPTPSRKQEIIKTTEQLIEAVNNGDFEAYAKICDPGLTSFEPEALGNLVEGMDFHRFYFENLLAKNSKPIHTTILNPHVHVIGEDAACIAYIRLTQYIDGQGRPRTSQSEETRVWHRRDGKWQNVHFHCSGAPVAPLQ

Usually residual activity stands for the signal under treatment as a percentage of the control signal. Turning to `COc1cc2c(Oc3ccc(-c4nc5ccccc5s4)cc3)ncnc2cc1OCCCN1CCCC1`, the residual activity was 101% in assay [1]; 56% in [2]; 92% in assay [3]; 87% in assay [4]; 59% in [5]; 93% in [6]. In addition, the residual activity in assay [7] worked out at 97%; in [8], 102%; in assay [9], 89%; in assay [10], 84%; in assay [11] it was 32%.
As for `COc1cc2c(Oc3ccc(-c4nc5ccccc5s4)cc3F)ncnc2cc1OCCCN1CCN(C)CC1`, the residual activity was determined as 94% in assay [1]; 58% in [2]; 87% in [3]; 87% in [4]; 29% in assay [5]; 107% in assay [6]. Moreover, the residual activity in assay [7] was 94%; in [8], 101%; in [9] it was 89%; in [10] it was 107%; in assay [11], 30%.
As to `COc1cc2c(Oc3ccc(-c4nc5ccccc5s4)cc3)ncnc2cc1OCCCN1CCN(C)CC1`, the residual activity in assay [1] is 100%; in assay [2] it was 67%; in assay [3], 91%; in [4] it was 88%; in assay [5], 33%; in assay [6], 106%. Further, the residual activity was 82% in assay [7]; 90% in assay [8]; 81% in [9]; 72% in assay [10]; 34% in assay [11].
